Melting point data for 1 compound are collected here from patent US6579890B1, “Matrix metalloprotease inhibitors” (Syntex (U.S.A.) Inc., priority 1993, dated 2003).

`CC(C)(C)[C@H](NC(=O)[C@H](CCCc1ccc(-c2ccccc2)cc1)CC(=O)O)C(=O)Nc1ccncc1` [Example 32A, N-(2R-carboxymethyl-5-(biphen-4-yl)pentanoyl)-L-t-leucine-N′-(pyridin-4-yl)carboxamide] yielded a melting point of 198 to 201 °C.

The term melting point denotes the temperature of the solid-liquid transition.
